Test results as given in US20240116892A1, “HETEROCYCLIC AMIDE AND UREA COMPOUNDS AS JAK2 INHIBITORS” (Ajax Therapeutics, Inc., priority 2022, published 2024).

target: JAK2 (JH1 domain-catalytic, Y1007F, Y1008F) kinase (Homo sapiens (Human), UniProt O60674, Y1007F/Y1008F); test: JAK2 JH1 Domain Binding Assay; conditions: qPCR readout
How it was run: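 Competitive binding format: test compound, DNA-tagged JAK2 JH1 (Y1007F/Y1008F; HEK293-expressed NFkB fusion) and ligand-coated magnetic beads incubated 1 h at room temperature. Kinase retained on beads released with 0.5 μmol/L non-biotinylated ligand, then measured by qPCR.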

JAK2 (JH1 domain-catalytic, Y1007F, Y1008F) kinase, sequence (O60674 849-1124 Y1007F/Y1008F): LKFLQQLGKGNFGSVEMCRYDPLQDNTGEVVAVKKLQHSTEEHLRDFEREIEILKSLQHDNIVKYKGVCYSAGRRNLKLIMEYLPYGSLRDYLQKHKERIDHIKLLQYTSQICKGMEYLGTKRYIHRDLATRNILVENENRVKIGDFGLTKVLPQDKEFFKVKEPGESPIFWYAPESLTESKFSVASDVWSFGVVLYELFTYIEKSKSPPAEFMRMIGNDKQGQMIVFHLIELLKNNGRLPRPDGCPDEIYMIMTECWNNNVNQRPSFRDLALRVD

SMILES | Kd
CC(=O)Nc1cnc(N2CCC(CC(=O)Nc3cc(C)cc(C(F)(F)F)c3)CC2)cn1 [Example I-2, 2-(1-(5-acetamidopyrazin-2-yl)piperidin-4-yl)-N-(3-methyl-5-(trifluoromethyl)phenyl)acetamide] | 50 to 1000 nM
CC(=O)Nc1cnc(N2CCC(CC(=O)Nc3cc(C(F)(F)F)cn(C)c3=O)CC2)cn1 [Example I-3, 2-(1-(5-acetamidopyrazin-2-yl)piperidin-4-yl)-N-(1-methyl-2-oxo-5-(trifluoromethyl)-1,2-dihydropyridin-3-yl)acetamide] | 50 to 1000 nM
Cc1cc(NC(=O)C2(C3CCN(c4cnccn4)CC3)CC2)cc(C(F)(F)F)c1 [Example I-4, N-(3-methyl-5-(trifluoromethyl)phenyl)-1-(1-(pyrazin-2-yl)piperidin-4-yl)cyclopropane-1-carboxamide] | 50 to 1000 nM
Cn1cc(C(F)(F)F)cc(NC(=O)C2(C3CCN(c4cnccn4)CC3)CC2)c1=O [Example I-5, N-(1-methyl-2-oxo-5-(trifluoromethyl)-1,2-dihydropyridin-3-yl)-1-(1-(pyrazin-2-yl)piperidin-4-yl)cyclopropane-1-carboxamide] | 50 to 1000 nM
CC(=O)Nc1cnc(N2CCC(CC(=O)Nc3cccc(C(F)(F)F)c3)CC2)cn1 [Example I-6, 2-(1-(5-acetamidopyrazin-2-yl)piperidin-4-yl)-N-(3-(trifluoromethyl)phenyl)acetamide] | 50 to 1000 nM
CC(=O)Nc1cnc(N2CCC(CC(=O)Nc3cc(CN4CCN(C)CC4)cc(C(F)(F)F)c3)CC2)cn1 [Example I-7, 2-(1-(5-acetamidopyrazin-2-yl)piperidin-4-yl)-N-(3-((4-methylpiperazin-1-yl)methyl)-5-(trifluoromethyl)phenyl)acetamide] | 1000 to 5000 nM
Cc1cc(NC(=O)N(C)C2CCN(c3cnccn3)CC2)cc(C(F)(F)F)c1 [Example I-8, 1-methyl-3-(3-methyl-5-(trifluoromethyl)phenyl)-1-(1-(pyrazin-2-yl)piperidin-4-yl)urea] | 10 to 50 nM
CN(C(=O)Nc1cc(N2CCC(O)CC2)cc(C(F)(F)F)c1)C1CCN(c2cnccn2)CC1 [Example I-9, 3-(3-(4-hydroxypiperidin-1-yl)-5-(trifluoromethyl)phenyl)-1-methyl-1-(1-(pyrazin-2-yl)piperidin-4-yl)urea] | 1000 to 5000 nM
CN(C(=O)Nc1cc(C(F)(F)F)cn(C)c1=O)C1CCN(c2cnccn2)CC1 [Example I-10, 1-methyl-3-(1-methyl-2-oxo-5-(trifluoromethyl)-1,2-dihydropyridin-3-yl)-1-(1-(pyrazin-2-yl)piperidin-4-yl)urea] | 10 to 50 nM
Cc1cc(NC(=O)N(C)C2CCN(c3cnc4[nH]ccc4n3)CC2)cc(C(F)(F)F)c1 [Example I-11, 1-(1-(5H-pyrrolo[2,3-b]pyrazin-2-yl)piperidin-4-yl)-1-methyl-3-(3-methyl-5-(trifluoromethyl)phenyl)urea] | < 10 nM
CC(=O)Nc1ccc(N2CCC(N(C)C(=O)Nc3cc(C)cc(C(F)(F)F)c3)CC2)cn1 [Example I-12, N-(5-(4-(1-methyl-3-(3-methyl-5-(trifluoromethyl)phenyl)ureido)piperidin-1-yl)pyridin-2-yl)acetamide] | < 10 nM
CC(=O)Nc1cnc(N2CCC(N(C)C(=O)Nc3cc(C)cc(C(F)(F)F)c3)CC2)cn1 [Example I-13, N-(5-(4-(1-methyl-3-(3-methyl-5-(trifluoromethyl)phenyl)ureido)piperidin-1-yl)pyrazin-2-yl)acetamide] | < 10 nM
CC(=O)Nc1cnc(N2CCC(N(C)C(=O)Nc3cc(C(F)(F)F)cn(C)c3=O)CC2)cn1 [Example I-14, N-(5-(4-(1-methyl-3-(1-methyl-2-oxo-5-(trifluoromethyl)-1,2-dihydropyridin-3-yl)ureido)piperidin-1-yl)pyrazin-2-yl)acetamide] | < 10 nM
CN(C(=O)Nc1cc(C(F)(F)F)cn(C)c1=O)C1CCN(c2cnc3[nH]ccc3n2)CC1 [Example I-15, 1-(1-(5H-pyrrolo[2,3-b]pyrazin-2-yl)piperidin-4-yl)-1-methyl-3-(1-methyl-2-oxo-5-(trifluoromethyl)-1,2-dihydropyridin-3-yl)urea] | < 10 nM
CC(=O)Nc1cnc(N2CCC(N(C)C(=O)Nc3cccc(C(F)(F)F)c3)CC2)cn1 [Example I-16, N-(5-(4-(1-methyl-3-(3-(trifluoromethyl)phenyl)ureido)piperidin-1-yl)pyrazin-2-yl)acetamide] | < 10 nM
Cc1cc(NC(=O)N(C)C2CCN(c3cnc4[nH]ncc4c3)CC2)cc(C(F)(F)F)c1 [Example I-17, 1-(1-(1H-pyrazolo[3,4-b]pyridin-5-yl)piperidin-4-yl)-1-methyl-3-(3-methyl-5-(trifluoromethyl)phenyl)urea] | < 10 nM
CN(C(=O)Nc1cc(C(F)(F)F)cn(C)c1=O)C1CCN(c2cnc(NC(=O)C3CC3)cn2)CC1 [Example I-18, N-(5-(4-(1-methyl-3-(1-methyl-2-oxo-5-(trifluoromethyl)-1,2-dihydropyridin-3-yl)ureido)piperidin-1-yl)pyrazin-2-yl)cyclopropanecarboxamide] | < 10 nM
CC(=O)Nc1cnc(N2CCC(N(C)C(=O)Nc3cc(CN4CCN(C)CC4)cc(C(F)(F)F)c3)CC2)cn1 [Example I-19, N-(5-(4-(1-methyl-3-(3-((4-methylpiperazin-1-yl)methyl)-5-(trifluoromethyl)phenyl)ureido)piperidin-1-yl)pyrazin-2-yl)acetamide] | 10 to 50 nM
CC(=O)Nc1ccc(N2CCC(N(C)C(=O)Nc3cc(C(F)(F)F)cn(C)c3=O)CC2)cn1 [Example I-20, N-(5-(4-(1-methyl-3-(1-methyl-2-oxo-5-(trifluoromethyl)-1,2-dihydropyridin-3-yl)ureido)piperidin-1-yl)pyridin-2-yl)acetamide] | < 10 nM
CN(C(=O)Nc1cc(C(F)(F)F)cn(C)c1=O)C1CCN(c2cnc3[nH]ccc3c2)CC1 [Example I-21, 1-(1-(1H-pyrrolo[2,3-b]pyridin-5-yl)piperidin-4-yl)-1-methyl-3-(1-methyl-2-oxo-5-(trifluoromethyl)-1,2-dihydropyridin-3-yl)urea] | < 10 nM
CC(=O)Nc1cnc(N2CCC(N(C)C(=O)Nc3cc(C(F)(F)F)cc(C)n3)CC2)cn1 [Example I-23, N-(5-(4-(1-methyl-3-(6-methyl-4-(trifluoromethyl)pyridin-2-yl)ureido)piperidin-1-yl)pyrazin-2-yl)acetamide] | < 10 nM
CN(C(=O)Nc1cc(C(F)(F)F)cn(C)c1=O)C1CCN(c2ccc(NC(=O)C3CC3)nc2)CC1 [Example I-24, N-(5-(4-(1-methyl-3-(1-methyl-2-oxo-5-(trifluoromethyl)-1,2-dihydropyridin-3-yl)ureido)piperidin-1-yl)pyridin-2-yl)cyclopropanecarboxamide] | < 10 nM
CN(C(=O)Nc1cc(C(F)(F)F)cn(C)c1=O)C1CCN(c2cnc3[nH]c(C4CC4)cc3n2)CC1 [Example I-25, 1-(1-(6-cyclopropyl-5H-pyrrolo[2,3-b]pyrazin-2-yl)piperidin-4-yl)-1-methyl-3-(1-methyl-2-oxo-5-(trifluoromethyl)-1,2-dihydropyridin-3-yl)urea] | < 10 nM
CN(C(=O)Nc1cc(C(F)(F)F)cn(C)c1=O)C1CCN(c2cnc3[nH]ncc3c2)CC1 [Example I-26, 1-(1-(1H-pyrazolo[3,4-b]pyridin-5-yl)piperidin-4-yl)-1-methyl-3-(1-methyl-2-oxo-5-(trifluoromethyl)-1,2-dihydropyridin-3-yl)urea] | < 10 nM
